Results: patent US5981494A, “Use of glycosidase inhibitors” (University College London, priority 1997, dated 1999)

Key:
[1] = β-galactosidase activity against βPNP-Gal; assay type: biochemical; details: pH 6.0; α-galactosidase preparations
Source text: This was supported by the observation of batch to batch variability and the fact that the stability of the TNF-enhancing activity differed from the αPNP-Gal activity. Although all enzyme preparations were first dialysed and adjusted to the same activity against αPNP-Gal, batches from different sources enhanced to different degrees (as illustrated in FIG. 1). […] Apart from BSA, all preparations contained 3 bands of 33 kD, 29 kD and 27 kD; 28 kD and 36.5 kD isoforms were previously described (4).

[2] = tested on: thioglycollate-induced peritoneal macrophages; test: TNF induction from thioglycollate-induced peritoneal macrophages (ELISA and L929 cytotoxicity bioassay); assay type: cell-based, murine
Experimental: Serial dilutions of an extract of parasitized RBC which (undiluted) induced 435 ng/ml of TNF as determined by ELISA and 30,400 U/ml in the bioassay were incubated at pH 8.0 at 37° C. overnight with a series of concentrations of α-galactosidase from Sigma or from Oxford Glycosystems, boiled, neutralised and then tested on macrophages for TNF induction by bioassay and ELISA (means of duplicates). The amount of TNF that would have been induced by the original undiluted extract was then calculated.
(§1) (One of 2 experiments) (A) Rate of reaction of 0.04 U/ml of α-galactosidase at 37° C. with p-nitrophenyl-α-D-galactopyranoside as substrate as determined over the first 3 mins. (B) Malaria toxin from P. yoelii diluted 1/10 and (C) 50 ng/ml of LPS were incubated overnight at 37° C. with 2 U/ml of α-galactosidase,then boiled and tested on macrophages for TNF induction, assayed by ELISA. (Means of duplicates).
Mice bred at University College London ((CBA×Balb/c)F1 or CBA×C57B1) F1) were infected with P. yoelii YM or P. berghei ANKA. Parasitized RBC (1×10^8/ml)in Earle's Balanced Salt Solution (BSS; Life Technologies Ltd, Paisley, U.K.) were incubated at 37° C. overnight, then disrupted by freezing and thawing, digested overnight with 250 μg pronase E (Sigma) per mg of protein (determined by BioRad assay), boiled, treated with 25 μg/ml polymyxin B agarose (Sigma) to eliminate endotoxin, filtered through a 0.2-μm filter (Sartorius AG, Gottingen, Germany) and stored at 4° C. (24). TNF induction from thioglycollate-induced peritoneal macrophages and ELISA assays for murine TNF were described previously (24). Polymyxin B (5 μg/ml) was included in all experiments with malaria toxin to exclude effects from contaminating LPS. A more sensitive one-plate procedure for TNF production and assay was also used (5). Cytotoxicity assays for TNF were done using L929 cells (23). Green coffee bean α-D-galactosidase was obtained from 2 sources (Sigma, Poole, Dorset, UK and Oxford GlycoSystems Ltd, Abingdon, Oxford UK).

[3] = α-galactosidase hydrolysis of p-nitrophenyl-α-D-galactopyranoside (αPNP-Gal); assay type: biochemical
Experimental: as §1
The α-galactosidase hydrolysis of p-nitrophenyl-α-D-galactopyranoside (αPNP-Gal) is optimal at pH 6.0 (4, 9) and undetectable at pH 8.0 (9), as we confirmed, but enhancement of TNF-induction by malaria toxin was greatest at pH 8.0 (FIG. 2.). […] The degree of enhancement also varied with the concentration of LPS, and at higher concentrations enhancement was also detectable at pH 6.0.

In the case of “α-galactosidase: Green coffee bean α-D-galactosidase obtained from Sigma and Oxford GlycoSystems”, the “β-galactosidase activity against βPNP-Gal” value [1] is reported as “No β-galactosidase activity was detectable”, the “TNF secretion of macrophages pre-treated with enzyme, then stimulated with toxin or LPS” value ([2]; 2 U/ml enzyme for 1 hr at 37° C., then toxin or 2 or 10 ng/ml LPS) is reported as “did not secrete more TNF than untreated cells” and the “TNF induction from macrophages incubated with enzyme only” value ([2]; 2 U/ml enzyme only) is reported as “No TNF was induced”. The “increase in potency of LPS in stimulating the release of TNFα from macrophages” value ([2]; bacterial derived LPS treated with the enzyme) was 10-100 fold, the “enhancement of TNF induction with boiled enzyme” value ([2]; boiled enzyme) was “no enhancement occurred” and the “enhancement of TNF induction by malaria toxin (extracts of infected RBC) pre-treated with enzyme” value ([2]; extracts of RBC infected with P. yoelii or P. berghei) was “Significant increase in TNF-induction”. For the same substance, the “pH of greatest enhancement of TNF-induction by malaria toxin” value ([2]; overnight at 37° C. with 2 U/ml enzyme) was 8.0 pH, the “enhancement of TNF-inducing activity of LPS” value ([2]; similar pH profile to the toxin) was “also enhanced” and the “stability of TNF-enhancing capacity on storage” value ([2]; storage at 4° C.) was “deteriorated”. The “pH optimum of hydrolysis of αPNP-Gal” value [3] was 6.0 pH and the “hydrolysis of αPNP-Gal at pH 8.0” value ([3]; pH 8.0) was “undetectable”.
